Assay results from ChEMBL document CHEMBL5625252, “Synthesis of peptidomimetics as antibiotic adjuvants for combination with aztreonam to combat MDR Pseudomonas aeruginosa” (Eur J Med Chem, 2023).
In brackets after ≈: the same amount, converted by molar mass. Activity calls are given as the source filed them. No cut-off for these calls is given here. Where a SMILES comes first, the peptide text is derived from it. The star is where a group is joined. βNA = c1ccc2cc(N*)ccc2c1

How the values were obtained:
Pseudomonas aeruginosa [1] = assay: Synergistic antibacterial activity against Pseudomonas aeruginosa 13-35 in CAMH broth medium supplemented with 0.41 to 0.51 mM Mg2+ in presence of aztreonam by checkerboard assay; type: functional
Pseudomonas aeruginosa [2] = assay: Antibacterial activity against Pseudomonas aeruginosa 21-2 assessed as inhibition of bacterial growth incubated for 18 hrs by agar dilution method; type: functional
Pseudomonas aeruginosa [3] = assay: Antibacterial activity against Pseudomonas aeruginosa PAO1 assessed as fractional inhibitory concentration index upto 128 ug/ml incubated for 18 hrs in presence of aztreonam by checkerboard method; type: functional; details: dose <= 128 µg/ml
Pseudomonas aeruginosa [4] = assay: Synergistic antibacterial activity against Pseudomonas aeruginosa 23-Y122 assessed as fractional inhibitory concentration index at 128 ug/ml incubated for 18 hrs in presence of aztreonam by checkerboard method; type: functional; details: dose 128 µg/ml
Pseudomonas aeruginosa [5] = assay: Synergistic antibacterial activity against Pseudomonas aeruginosa 16-11 assessed as fractional inhibitory concentration index in CAMH broth medium supplemented with 20.99 to 21.09 mM Mg2+ in presence of aztreonam by checkerboard assay; type: functional
Pseudomonas aeruginosa [6] = assay: Synergistic antibacterial activity against Pseudomonas aeruginosa 12-1 in CAMH broth medium supplemented with 0.41 to 0.51 mM Mg2+ in presence of aztreonam by checkerboard assay; type: functional
Pseudomonas aeruginosa [7] = assay: Synergistic antibacterial activity against Pseudomonas aeruginosa 12-1 assessed as fractional inhibitory concentration index in CAMH broth medium supplemented with 0.41 to 0.51 mM Mg2+ in presence of aztreonam by checkerboard assay; type: functional
Pseudomonas aeruginosa [8] = assay: Synergistic antibacterial activity against Pseudomonas aeruginosa 13-35 assessed as fractional inhibitory concentration index in CAMH broth medium supplemented with 0.41 to 0.51 mM Mg2+ in presence of aztreonam by checkerboard assay; type: functional
Pseudomonas aeruginosa [9] = assay: Synergistic antibacterial activity against Pseudomonas aeruginosa 21-2 assessed as fractional inhibitory concentration index at 128 ug/ml incubated for 18 hrs in presence of aztreonam by checkerboard method; type: functional; details: dose 128 µg/ml
Pseudomonas aeruginosa [10] = assay: Synergistic antibacterial activity against Pseudomonas aeruginosa 23-Y372 assessed as fractional inhibitory concentration index at 128 ug/ml incubated for 18 hrs in presence of aztreonam by checkerboard method; type: functional; details: dose 128 µg/ml
Pseudomonas aeruginosa [11] = assay: Synergistic antibacterial activity against Pseudomonas aeruginosa 23-Y122 assessed as aztreonam MIC at 128 ug/ml incubated for 18 hrs by checkerboard method; type: functional; details: dose 128 µg/ml
Pseudomonas aeruginosa [12] = assay: Synergistic antibacterial activity against Pseudomonas aeruginosa 16-11 assessed as fractional inhibitory concentration index in CAMH broth medium supplemented with 0.41 to 0.51 mM Mg2+ in presence of aztreonam by checkerboard assay; type: functional
[13] = Cytotoxicity against HEK293 cells incubated for 24 hrs by MTT assay; type: toxicity, cell-based; details: human
[14] = Cytotoxicity against human LX2 cells incubated for 24 hrs by MTT assay; type: toxicity, cell-based; details: LX-2 cells
Pseudomonas aeruginosa [15] = assay: Synergistic antibacterial activity against Pseudomonas aeruginosa PAO1 in CAMH broth medium supplemented with 0.41 to 0.51 mM Mg2+ in presence of aztreonam by checkerboard assay; type: functional
Pseudomonas aeruginosa [16] = assay: Antibacterial activity against Pseudomonas aeruginosa 12-1 in CAMH broth medium supplemented with 20.99 to 21.09 mM Mg2+ by checkerboard assay; type: functional
Pseudomonas aeruginosa [17] = assay: Synergistic antibacterial activity against Pseudomonas aeruginosa 19-55 assessed as fractional inhibitory concentration index at 128 ug/ml incubated for 18 hrs in presence of aztreonam by checkerboard method; type: functional; details: dose 128 µg/ml
Pseudomonas aeruginosa [18] = assay: Antibacterial activity against Pseudomonas aeruginosa 16-11 in CAMH broth medium supplemented with 20.99 to 21.09 mM Mg2+ by checkerboard assay; type: functional
Pseudomonas aeruginosa [19] = assay: Synergistic antibacterial activity against Pseudomonas aeruginosa 19-46 assessed as aztreonam MIC at 128 ug/ml incubated for 18 hrs by checkerboard method; type: functional; details: dose 128 µg/ml
Pseudomonas aeruginosa [20] = assay: Antibacterial activity against Pseudomonas aeruginosa 23-Y511 assessed as inhibition of bacterial growth incubated for 18 hrs by agar dilution method; type: functional
Pseudomonas aeruginosa [21] = assay: Antibacterial activity against Pseudomonas aeruginosa 23-Y372 assessed as inhibition of bacterial growth incubated for 18 hrs by agar dilution method; type: functional
Pseudomonas aeruginosa [22] = assay: Synergistic antibacterial activity against Pseudomonas aeruginosa 13-3 assessed as aztreonam MIC at 128 ug/ml incubated for 18 hrs by checkerboard method; type: functional; details: dose 128 µg/ml
Pseudomonas aeruginosa [23] = assay: Synergistic antibacterial activity against Pseudomonas aeruginosa 16-11 assessed as aztreonam MIC at 128 ug/ml incubated for 18 hrs by checkerboard method; type: functional; details: dose 128 µg/ml
Pseudomonas aeruginosa [24] = assay: Synergistic antibacterial activity against Pseudomonas aeruginosa 16-2 assessed as aztreonam MIC at 128 ug/ml incubated for 18 hrs by checkerboard method; type: functional; details: dose 128 µg/ml
Pseudomonas aeruginosa [25] = assay: Antibacterial activity against Pseudomonas aeruginosa 23-Y122 assessed as inhibition of bacterial growth incubated for 18 hrs by agar dilution method; type: functional
Pseudomonas aeruginosa [26] = assay: Synergistic antibacterial activity against Pseudomonas aeruginosa 21-8 assessed as aztreonam MIC at 128 ug/ml incubated for 18 hrs by checkerboard method; type: functional; details: dose 128 µg/ml
Pseudomonas aeruginosa [27] = assay: Synergistic antibacterial activity against Pseudomonas aeruginosa 19-55 assessed as aztreonam MIC at 128 ug/ml incubated for 18 hrs by checkerboard method; type: functional; details: dose 128 µg/ml
Pseudomonas aeruginosa [28] = assay: Antibacterial activity against Pseudomonas aeruginosa 16-11 assessed as inhibition of bacterial growth incubated for 18 hrs by agar dilution method; type: functional
Pseudomonas aeruginosa [29] = assay: Antibacterial activity against Pseudomonas aeruginosa PAO1 infected in Galleria mellonella assessed as increase in larvae survival at 100 mg/kg after 12 hrs of innoculation; type: functional, organism-based
Pseudomonas aeruginosa [30] = assay: Antibacterial activity against Pseudomonas aeruginosa PAO1 assessed as inhibition of bacterial growth incubated for 18 hrs by agar dilution method; type: functional
Pseudomonas aeruginosa [31] = assay: Antibacterial activity against Pseudomonas aeruginosa 13-17 assessed as inhibition of bacterial growth incubated for 18 hrs by agar dilution method; type: functional
Pseudomonas aeruginosa [32] = assay: Synergistic antibacterial activity against Pseudomonas aeruginosa 13-35 assessed as aztreonam MIC in CAMH broth medium supplemented with 0.41 to 0.51 mM Mg2+ by checkerboard assay; type: functional
Pseudomonas aeruginosa [33] = assay: Antibacterial activity against Pseudomonas aeruginosa 19-46 assessed as inhibition of bacterial growth incubated for 18 hrs by agar dilution method; type: functional
Pseudomonas aeruginosa [34] = assay: Synergistic antibacterial activity against Pseudomonas aeruginosa 12-1 assessed as aztreonam MIC in CAMH broth medium supplemented with 20.99 to 21.09 mM Mg2+ by checkerboard assay; type: functional
Pseudomonas aeruginosa [35] = assay: Antibacterial activity against Pseudomonas aeruginosa 21-7 assessed as inhibition of bacterial growth incubated for 18 hrs by agar dilution method; type: functional
Pseudomonas aeruginosa [36] = assay: Synergistic antibacterial activity against Pseudomonas aeruginosa 23-Y511 assessed as aztreonam MIC at 128 ug/ml incubated for 18 hrs by checkerboard method; type: functional; details: dose 128 µg/ml
Pseudomonas aeruginosa [37] = assay: Antibacterial activity against Pseudomonas aeruginosa 23-Y539 assessed as inhibition of bacterial growth incubated for 18 hrs by agar dilution method; type: functional
Pseudomonas aeruginosa [38] = assay: Synergistic antibacterial activity against Pseudomonas aeruginosa 13-35 assessed as aztreonam MIC in CAMH broth medium supplemented with 20.99 to 21.09 mM Mg2+ by checkerboard assay; type: functional
Pseudomonas aeruginosa [39] = assay: Antibacterial activity against Pseudomonas aeruginosa PAO1 at 128 ug/ml measured upto 24 hrs in presence of aztreonam by time-kill assay; type: functional, organism-based; details: dose 128.0 µg/ml
Pseudomonas aeruginosa [40] = assay: Synergistic antibacterial activity against Pseudomonas aeruginosa 23-Y417 assessed as aztreonam MIC at 128 ug/ml incubated for 18 hrs by checkerboard method; type: functional; details: dose 128 µg/ml

With `N=C(N)NCCC[C@H](NC(=O)[C@@H](N)Cc1ccccc1)C(=O)Nc1ccc2ccccc2c1` [PABETAN] (H-Phe-Arg-βNA) the MIC (Pseudomonas aeruginosa [1]) was 128 µg/mL, the MIC (Pseudomonas aeruginosa [2]) was 512 µg/mL (≈ 1150 µM) and the “fractional inhibitory concentration index (FICI)” value (Pseudomonas aeruginosa [3]) was less than 0.375. For the same molecule, the “fractional inhibitory concentration index (FICI)” value (Pseudomonas aeruginosa [4]) was 0.75, the “fractional inhibitory concentration index (FICI)” value (Pseudomonas aeruginosa [5]) was 1.25 and the MIC (Pseudomonas aeruginosa [6]) was 128 µg/mL. The “fractional inhibitory concentration index (FICI)” value (Pseudomonas aeruginosa [7]) was 1.25, the “fractional inhibitory concentration index (FICI)” value (Pseudomonas aeruginosa [8]) was 0.5 and the “fractional inhibitory concentration index (FICI)” value (Pseudomonas aeruginosa [9]) was 0.5. For the same molecule, the “fractional inhibitory concentration index (FICI)” value (Pseudomonas aeruginosa [10]) was 0.375, the MIC (Pseudomonas aeruginosa [11]) was 16 µg/mL and the “fractional inhibitory concentration index (FICI)” value (Pseudomonas aeruginosa [12]) was 1.25. It also gave a CC50 at 24 h [13] greater than 100 µM, a CC50 at 24 h [14] greater than 100 µM and an MIC (Pseudomonas aeruginosa [15]) of 128 µg/mL. For the same molecule, the MIC (Pseudomonas aeruginosa [16]) was 512 µg/mL, the “fractional inhibitory concentration index (FICI)” value (Pseudomonas aeruginosa [17]) was 0.313 and the MIC (Pseudomonas aeruginosa [18]) was 512 µg/mL.

Molecule `NCCC[C@H](NC(=O)C[C@@H](N)Cc1ccccc1)C(=O)Nc1ccc2ccccc2c1` has an MIC (Pseudomonas aeruginosa [1]) of 128 µg/mL, an MIC (Pseudomonas aeruginosa [19]) of 16 µg/mL and an MIC (Pseudomonas aeruginosa [2]) greater than 512 µg/mL. The MIC (Pseudomonas aeruginosa [20]) was 256 µg/mL (≈ 612 µM), the “fractional inhibitory concentration index (FICI)” value (Pseudomonas aeruginosa [3]) was less than 0.375 and the MIC (Pseudomonas aeruginosa [21]) was 512 µg/mL (≈ 1220 µM). For the same molecule, the MIC (Pseudomonas aeruginosa [22]) was 8 µg/mL, the “fractional inhibitory concentration index (FICI)” value (Pseudomonas aeruginosa [4]) was 1.25 and the “fractional inhibitory concentration index (FICI)” value (Pseudomonas aeruginosa [5]) was 1.25. For the same molecule, the MIC (Pseudomonas aeruginosa [23]) was 2 µg/mL, the MIC (Pseudomonas aeruginosa [6]) was 128 µg/mL and the “fractional inhibitory concentration index (FICI)” value (Pseudomonas aeruginosa [7]) was 1.25. The MIC (Pseudomonas aeruginosa [24]) was 16 µg/mL, the “fractional inhibitory concentration index (FICI)” value (Pseudomonas aeruginosa [8]) was 0.5 and the MIC (Pseudomonas aeruginosa [25]) was 512 µg/mL (≈ 1220 µM). It also gave an MIC (Pseudomonas aeruginosa [26]) of 2 µg/mL, an MIC (Pseudomonas aeruginosa [27]) of 8 µg/mL and an MIC (Pseudomonas aeruginosa [28]) of 512 µg/mL (≈ 1220 µM). For the same molecule, the Activity (Pseudomonas aeruginosa [29]) was “inactive”, the MIC (Pseudomonas aeruginosa [30]) was 512 µg/mL (≈ 1220 µM) and the “fractional inhibitory concentration index (FICI)” value (Pseudomonas aeruginosa [9]) was less than 0.5. The MIC (Pseudomonas aeruginosa [31]) was 512 µg/mL (≈ 1220 µM), the MIC (Pseudomonas aeruginosa [32]) was 4 µg/mL and the MIC (Pseudomonas aeruginosa [33]) was 512 µg/mL (≈ 1220 µM). For the same molecule, the MIC (Pseudomonas aeruginosa [34]) was 64 µg/mL, the “fractional inhibitory concentration index (FICI)” value (Pseudomonas aeruginosa [10]) was 0.375 and the MIC (Pseudomonas aeruginosa [11]) was 32 µg/mL. For the same molecule, the MIC (Pseudomonas aeruginosa [35]) was 512 µg/mL (≈ 1220 µM), the MIC (Pseudomonas aeruginosa [36]) was 16 µg/mL and the “fractional inhibitory concentration index (FICI)” value (Pseudomonas aeruginosa [12]) was 1.25. For the same molecule, the CC50 at 24 h [13] was greater than 100 µM, the MIC (Pseudomonas aeruginosa [37]) was 512 µg/mL (≈ 1220 µM) and the CC50 at 24 h [14] was greater than 100 µM. For the same molecule, the MIC (Pseudomonas aeruginosa [38]) was 32 µg/mL, the MIC (Pseudomonas aeruginosa [15]) was 128 µg/mL and the Activity (Pseudomonas aeruginosa [39]) was “Active”. For the same molecule, the MIC (Pseudomonas aeruginosa [40]) was 8 µg/mL, the MIC (Pseudomonas aeruginosa [16]) was 512 µg/mL and the “fractional inhibitory concentration index (FICI)” value (Pseudomonas aeruginosa [17]) was 0.313. It also gave an MIC (Pseudomonas aeruginosa [18]) of 512 µg/mL.
